Experimental data from patent US5155031A, “Use of pervanadate as an inhibitor of phosphotyrosine phosphatase” (priority 1990, dated 1992).
Entries after “also recorded” stand apart in the source; their conditions may differ. Read-outs that look alike come from different tables or passages of the source.

Columns and labels:
alkaline phosphatase = alkaline phosphatase catalyzed dephosphorylation of the lectin-purified insulin receptor; format: biochemical
Protocol: To do so, lectin-purified insulin receptor (6.0 fmol of insulin binding) was preincubated with 10^-7 M insulin for 60 min at 4° C. Phosphorylation was initiated by addition of [γ^-32 P]ATP, and the insulin receptor was immunoprecipitated by incubating with anti-insulin receptor antibody (140 μg of protein) for 4h at 4° C. followed by incubation with protein A-SEPHAROSE * beads for 1 h at 4° C. The immunoprecipitate was washed twice with 50 mM HEPES buffer, pH 7.6, containing 0.1% TRITON X-100 * detergent and 0.1% SDS and once with the above buffer without SDS. After being washed, the immunoprecipitate was incubated with or without the indicated concentrations of vanadate, H2 O2, or pervanadate in the presence or absence of a 15 units.mL solution of alkaline phosphatase for 60 min at 4° C. with vigorous shaking. This sample was washed twice with 50 mM HEPES buffer, pH 7.6, containing 0.1% TRITON X-100 * detergent and subjected to SDS-PAGE followed by radioautography as shown in FIG. 1. Densitometric scanning of the radioautographs was done with a ZEINER * soft laser scanning densitometer (Model SL-504-XL).

[1] = tested on: rat hepatocyte phosphotyrosine phosphatase; assay: insulin receptor tyrosine dephosphorylation catalyzed by crude phosphotyrosine phosphatase from rat liver microsomes; format: biochemical
Protocol: Since vanadate and pervanadate may have different specificities for various phosphoprotein phosphatases, their inhibitory effects were separated tested on insulin receptor tyrosine dephosphorylation catalyzed by a crude preparation of phosphotyrosine phosphatase activity extracted from rat liver microsomes.
The samples were processed as in example 1, except that after being washed, the immunoprecipitate was incubated with or without 10^-4 M vanadate, 10^-4 M H2 O2 or 10^-4 m pervanadate in the presence or absence of an equal volume, 50 μL, of rat hepatocyte phosphotyrosine phosphatase (as described above) for 20 min at 30° C. with vigorous shaking.

tyrosine phosphatases = conditions: cited from earlier work
insulin receptor [2] = conditions: adipocytes, cited from earlier work
[3] = stability of the pervanadate solution; format: physicochemical; conditions: after catalase 200 μg/mL to remove residual H2 O2
Protocol: The vanadate solution used in the examples presented below was prepared as described in Kadota et al. supra, to avoid changes in pH and the generation of colored decavanadate (orange-yellow) or vanadyl ion, VO^2+ (blue). The solution of pervanadate was prepared by mixing vanadate or vanadate containing substance with H2 O2 or a peroxide-containing substance (10^-3 M unless otherwise indicated) for 15 min at 22° C. This was followed by the addition of catalase, 200 μg/mL, to remove residual H2 O2. […] The concentration of pervanadate generated is denoted by the vanadate concentration added to the mixture.

insulin receptor [4] = molecular target: T1, insulin receptor (Rattus norvegicus, UniProt P15127); assay: Insulin Receptor Autophosphorylation Assay; format: biochemical; conditions: 10^-3 to 10^-7 M, 15 min, 37° C.; WGA-purified adipocyte insulin receptors
T1 construct: Insulin receptors were solubilized and partially purified by WGA chromatography; endogenous in cells; host or cells: isolated rat adipocytes
Protocol: To elucidate further the mechanism of action of pervanadate, this compound was added in vitro to solubilized WGA-purified adipocyte insulin receptors.
Isolated rat adipocytes were incubated with different concentrations of pervanadate (10^-3 to 10^-7 M), 10 ng/mL (1.7×10^-9 M) insulin, or no additions for 15 min at 37° C. Insulin receptors were solubilized and partially purified by WGA chromatography. […] An aliquot of insulin receptor (5-10 fmol of insulin binding) was used in the autophosphorylation assay as described below, in the presence or absence of in vitro insulin, followed by SDS-PAGE and radioautography.
The Insulin Receptor Autophosphorylation Assay proceeded as follows: lectin-purified insulin receptor (5-10 fmol of insulin binding) was incubated with or without 10^-7 M insulin in a 50 mM HEPES buffer containing 8 mM MnCl2, 10 mM MgCl2, 270 μM dithiothreitol, and 10 μg/mL bovine serum albumin for 1 h at 4° C., in a total volume of 90 μL. The phosphorylation reaction was initiated by the addition of 10 μL of diluted [γ^-32 P]ATP (10 Ci/mmol) to a final concentration of 50 μM, and the reaction mixture was further incubated for 15 min at 4° C. […]

tyrosine kinase = conditions: cited from earlier work
[5] = increasing concentrations, 15 units/mL alkaline phosphatase, 60 min, 4° C., SDS-PAGE, radioautography

T1 sequence (P15127 764-1383 limits assumed): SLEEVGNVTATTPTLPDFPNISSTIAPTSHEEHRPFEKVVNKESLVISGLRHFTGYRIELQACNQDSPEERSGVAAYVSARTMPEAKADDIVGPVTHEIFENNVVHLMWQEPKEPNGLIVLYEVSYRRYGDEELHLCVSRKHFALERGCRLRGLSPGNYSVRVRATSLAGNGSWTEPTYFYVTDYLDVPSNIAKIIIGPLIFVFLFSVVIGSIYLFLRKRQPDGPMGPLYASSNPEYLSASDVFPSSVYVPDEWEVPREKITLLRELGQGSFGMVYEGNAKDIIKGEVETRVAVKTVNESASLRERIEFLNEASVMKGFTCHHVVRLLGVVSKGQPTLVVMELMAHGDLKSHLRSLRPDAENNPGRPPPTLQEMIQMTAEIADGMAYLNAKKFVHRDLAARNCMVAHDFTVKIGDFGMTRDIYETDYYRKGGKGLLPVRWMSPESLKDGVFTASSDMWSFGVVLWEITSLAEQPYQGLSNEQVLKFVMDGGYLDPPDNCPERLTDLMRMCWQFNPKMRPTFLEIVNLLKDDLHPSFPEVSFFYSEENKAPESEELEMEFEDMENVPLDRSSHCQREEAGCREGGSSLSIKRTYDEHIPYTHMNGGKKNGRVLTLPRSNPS
T1 sequence (P15127 27-759 partner limits assumed): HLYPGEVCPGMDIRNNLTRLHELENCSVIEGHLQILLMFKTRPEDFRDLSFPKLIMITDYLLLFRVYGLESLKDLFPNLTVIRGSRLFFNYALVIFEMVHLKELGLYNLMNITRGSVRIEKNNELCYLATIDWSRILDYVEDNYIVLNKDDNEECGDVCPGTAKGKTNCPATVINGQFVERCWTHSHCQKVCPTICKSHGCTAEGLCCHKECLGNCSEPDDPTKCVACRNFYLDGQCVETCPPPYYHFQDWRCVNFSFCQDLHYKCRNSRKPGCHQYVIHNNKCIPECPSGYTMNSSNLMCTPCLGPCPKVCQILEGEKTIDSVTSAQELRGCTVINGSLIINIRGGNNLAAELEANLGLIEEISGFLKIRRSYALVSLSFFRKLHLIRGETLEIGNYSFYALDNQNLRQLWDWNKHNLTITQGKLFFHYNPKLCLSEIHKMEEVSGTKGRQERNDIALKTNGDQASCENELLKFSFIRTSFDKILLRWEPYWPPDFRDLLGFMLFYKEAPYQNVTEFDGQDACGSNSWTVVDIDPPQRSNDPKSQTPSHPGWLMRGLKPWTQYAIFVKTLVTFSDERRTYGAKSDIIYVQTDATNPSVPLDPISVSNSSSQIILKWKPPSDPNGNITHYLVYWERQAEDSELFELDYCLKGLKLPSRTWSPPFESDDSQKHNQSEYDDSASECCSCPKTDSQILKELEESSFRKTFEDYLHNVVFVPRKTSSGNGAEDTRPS

Molecule	inhibition of alkaline phosphatase-catalyzed dephosphorylation of 32P-labeled insulin receptor β-subunit (alkaline phosphatase; 10^-3 M alone)	inhibition of insulin receptor tyrosine dephosphorylation catalyzed by rat hepatocyte phosphotyrosine phosphatase [1]	inhibition of alkaline phosphatase-catalyzed dephosphorylation of 32P-labeled insulin receptor β-subunit (alkaline phosphatase; [5])	inhibition of tyrosine phosphatases (tyrosine phosphatases)	inhibition of insulin receptor tyrosine dephosphorylation catalyzed by rat hepatocyte phosphotyrosine phosphatase ([1]; 10^-4 M, 20 min, 30° C.)	in situ tyrosine phosphorylation of the insulin receptor (insulin receptor [2])	activation of the insulin receptor kinase (insulin receptor [2]; time course versus insulin)	time the peroxidized form of vanadate is stable without further addition of H2 O2 [3] [h]	stimulation of insulin receptor autophosphorylation (insulin receptor [4])	stimulation of autophosphorylation of exogenous tyrosine kinase activity (tyrosine kinase)
OO [H2 O2, hydrogen peroxide, reference compound]	without effect	without effect								
[O]=[V]([O-])([O-])[O-] [vanadate]			inhibited the dephosphorylation of the ^32 P-labeled insulin receptor in a dose- dependent manner	inhibit tyrosine phosphatases	inhibited dephosphorylation but with less efficacy					
pervanadate			much less than that by vanadate alone; also recorded: does not inhibit		powerfully inhibited tyrosine dephosphorylation; also recorded: potent inhibitor; also recorded: more efficacious than vanadate	maximal effects similar to that of insulin	activates the insulin receptor kinase but with a slower time course than insulin	2	did not significantly stimulate autophosphorylation	does not either stimulate
